From US9303016B2, “Derivatives of aza adamantane and uses thereof” (CONNEXIOS LIFE SCIENCES PVT. LTD., priority 2011, dated 2016) come the findings set out here.

This assay deals with T1, human full length HSD11β1 (Homo sapiens, UniProt P28845).
T1 construct: transient expression of human full length HSD11β1 expression vector; host or cells: CHO cells, transient transfection
T1 sequence (P28845 whole entry): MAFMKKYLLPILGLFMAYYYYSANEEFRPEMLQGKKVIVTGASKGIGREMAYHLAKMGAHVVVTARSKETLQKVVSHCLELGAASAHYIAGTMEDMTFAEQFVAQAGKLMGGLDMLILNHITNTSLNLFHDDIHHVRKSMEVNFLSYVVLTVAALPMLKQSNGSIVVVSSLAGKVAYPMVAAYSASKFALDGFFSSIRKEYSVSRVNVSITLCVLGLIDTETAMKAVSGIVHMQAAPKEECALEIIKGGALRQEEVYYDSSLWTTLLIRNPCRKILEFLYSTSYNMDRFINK
Kind of assay: In Vitro HSD11β1 Inhibition Assay. As to conditions: CHO cells transiently expressing human HSD11β1; 200 nM cortisone+500 uM NADPH overnight; cortisone to cortisol by LC/MS-MS; read-out: 11βHSD1 (IC50). Format: cell-based. Here is the method: In Vitro HSD11β1 Inhibition Assay:
CHO cells were maintained in Dulbecco's modified Eagle's medium/nutrient mixture F-12 containing 5% fetal bovine serum (v/v) and 2 mM glutamine. Cells were cultured at 37° C. with 5% CO2. For transient expression of human full length HSD11β1 expression vector (OriGene Technologies), cells were seeded at a density of 2×10^5 cells/well in a 6-well plate. Transfection was done using Turbofectin8 reagent (OriGene Technologies), according to the protocol provided with the reagent. After 24 hours post-transfection, cells were trypsinized and pooled together before they were re-seeding to 96-well plate at a density of 40000 cells/well. 24 hours after re-seeding, cells were incubated with 200 nM cortisone+500 uM NADPH (or along with small molecule inhibitors) overnight. The enzymatic activity or inhibition of enzyme activity was measured by estimating the conversion of cortisone to cortisol by LC/MS-MS method. The IC50 in nM was calculated from a 8 point log scale of concentration versus inhibition.
For `COc1ccc2[nH]cc(C(C)CC(=O)N3C4CC5CC3CC(O)(C5)C4)c2c1` (stereo not drawn) [Compound 109, 1-(5-hydroxy-2-azatricyclo[3.3.1.1^3,7]dec-2-yl)-3-(5-methoxy-1H-indol-3-yl)butan-1-one], the IC50 is > 250 nM. With `O=C(CCc1c[nH]c2ncccc12)N1C2CC3CC(C2)CC1C3` [Example 14, 1-(2-azatricyclo[3.3.1.1^3,7]dec-2-yl)-3-(1H-pyrrolo[2,3-b]pyridin-3-yl)propan-1-one] the figure was 100 to 150 nM.

Consider `CC(CC(=O)N1C2CC3CC1CC(O)(C3)C2)c1c[nH]c2ccc(-c3ccco3)c(Cl)c12` (stereo not drawn) [Compound 208, 3-[4-chloro-5-(furan-2-yl)-1H-indol-3-yl]-1-(5-hydroxy-2-azatricyclo[3.3.1.1^3,7]dec-2-yl)butan-1-one], for which the IC50 is 100 to 150 nM. Then `CC(CC(=O)N1C2CC3CC1CC(O)(C3)C2)c1c[nH]c2cccc(F)c12` (single isomer, unassigned) [Example 27, 3-(4-fluoro-1H-indol-3-yl)-1-(5-hydroxy-2-azatricyclo[3.3.1.1^3,7]dec-2-yl)butan-1-one], with > 250 nM. With `CC(CC(=O)N1C2CC3CC(C2)CC1C3)c1nc2ccccc2s1` (stereo not drawn) [Compound 105, 1-(2-azatricyclo[3.3.1.1^3,7]dec-2-yl)-3-(1,3-benzothiazol-2-yl)butan-1-one] the figure was < 100 nM; with `CC(C)C(CC(=O)N1C2CC3CC1CC(C#N)(C3)C2)c1c[nH]c2ncccc12` (stereo not drawn) [Compound 92, 2-[4-methyl-3-(1H-pyrrolo[2,3-b]pyridin-3-yl)pentanoyl]-2-azatricyclo[3.3.1.1^3,7]decane-5-carbonitrile], > 250 nM; with `CC(CC(=O)N1C2CC3CC1CC(c1nnn[nH]1)(C3)C2)c1c[nH]c2cccc(C3CC3)c12` (stereo not drawn) [Compound 149, 3-(4-cyclopropyl-1H-indol-3-yl)-1-[5 (1H-tetrazol-5-yl)-2-azatricyclo[3.3.1.1^3,7]dec-2-yl]butan-1-one], > 250 nM. With `Cc1ccc2c(c1Cl)C(C(C)CC(=O)N1C3CC4CC1CC(O)(C4)C3)C(=O)N2` (stereo not drawn) [Compound 211, 4-chloro-3-[4-(5-hydroxy-2-azatricyclo[3.3.1.1^3,7]dec-2-yl)-4-oxobutan-2-yl]-5-methyl-1,3-dihydro-2H-indol-2-one] the figure was 150 to 200 nM; with `O=C(CCc1c[nH]c2cccc(F)c12)N1C2CC3CC1CC(O)(C3)C2` [Example 4, 3-(4-fluoro-1H-indol-3-yl)-1-(5-hydroxy-2-azatricyclo[3.3.1.1^3,7]dec-2-yl)propan-1-one], > 250 nM; with `CC(CC(=O)N1C2CC3CC1CC(CC(=O)O)(C3)C2)c1c[nH]c2cccc(Cl)c12` (stereo not drawn) [Compound 145, {2-[3-(4-chloro-1H-indol-3-yl)butanoyl]-2-azatricyclo[3.3.1.1^3,7]dec-5-yl}acetic acid], 100 to 150 nM. For `O=C(CC(c1ccc(Cl)cc1)c1c[nH]c2ccccc12)N1C2CC3CC1CC(O)(C3)C2` (stereo not drawn) [Example 71, 3-(4-chlorophenyl)-1-(5-hydroxy-2-azatricyclo[3.3.1.1^3,7]dec-2-yl)-3-(1H-indol-3-yl)propan-1-one], the IC50 is > 250 nM. As to `CC(CC(=O)N1C2CC3CC1CC(O)(C3)C2)c1c[nH]c2ccccc12` (stereo not drawn) [Example 20, 1-(5-hydroxy-2-azatricyclo[3.3.1.1^3,7]dec-2-yl)-3-(1H-indol-3-yl)butan-1-one], the IC50 is > 250 nM. With `CC(CC(=O)N1C2CC3CC(C2)CC1C3)c1c[nH]c2ccccc12` (stereo not drawn) [Example 17, 1-(2-azatricyclo[3.3.1.1^3,7]dec-2-yl)-3-(1H-indol-3-yl)butan-1-one], the IC50 is 100 to 150 nM. With `CC(CC(=O)N1C2CC3CC1CC(O)(C3)C2)c1c[nH]c2nccc(Cl)c12` (stereo not drawn) [Compound 87, 3-(4-chloro-1H-pyrrolo[2,3-b]pyridin-3-yl)-1-(5-hydroxy-2-azatricyclo[3.3.1.1^3,7]dec-2-yl)butan-1-one] the figure was 150 to 200 nM. With `O=C(CC(c1ccccc1)c1nc2ccccc2s1)N1C2CC3CC1CC(O)(C3)C2` (stereo not drawn) [Compound 107, 3-(1,3-benzothiazol-2-yl)-1-(5-hydroxy-2-azatricyclo[3.3.1.1^3,7]dec-2-yl)-3-phenylpropan-1-one] the figure was > 250 nM; with `Cc1ccnc2[nH]cc(C(C)CC(=O)N3C4CC5CC3CC(O)(C5)C4)c12` (stereo not drawn) [Compound 88, 1-(5-hydroxy-2-azatricyclo[3.3.1.1^3,7]dec-2-yl)-3-(4-methyl-1H-pyrrolo[2,3-b]pyridin-3-yl)butan-1-one], > 250 nM; with `Cc1ccc2[nH]cc(C(C)CC(=O)N3C4CC5CC3CC(O)(C5)C4)c2c1` (stereo not drawn) [Compound 110, 1-(5-hydroxy-2-azatricyclo[3.3.1.1^3,7]dec-2-yl)-3-(5-methyl-1H-indol-3-yl)butan-1-one], > 250 nM. Turning to `CC(CC(=O)N1C2CC3CC1CC(OC(F)F)(C3)C2)c1c[nH]c2cccc(Cl)c12` (stereo not drawn) [Example 39, 3-(4-chloro-1H-indol-3-yl)-1-[5-(difluoromethoxy)-2-azatricyclo[3.3.1.1^7]dec-2-yl]butan-1-one], the IC50 is 100 to 150 nM. On to `CC(CC(=O)N1C2CC3CC1CC(C#N)(C3)C2)c1nc2c(Cl)cccc2s1` (single isomer, unassigned) [Compound 125, 2-[3-(4-chloro-1,3-benzothiazol-2-yl)butanoyl]-2-azatricyclo[3.3.1.1^3,7]decane-5-carbonitrile], for which the IC50 was > 250 nM. Take `CC(CC(=O)N1C2CC3CC1CC(O)(C3)C2)c1c[nH]c2cccc(F)c12` (stereo not drawn) [Example 26, 3-(4-fluoro-1H-indol-3-yl)-1-(5-hydroxy-2-azatricyclo[3.3.1.1^3,7]dec-2-yl)butan-1-one]: the half-inhibitory concentration (IC50) is 200 to 250 nM. As to `O=C(CC(c1ccccc1)c1c[nH]c2cc(F)ccc12)N1C2CC3CC1CC(O)(C3)C2` (stereo not drawn) [Compound 94, 3-(6-fluoro-1H-indol-3-yl)-1-(5-hydroxy-2-azatricyclo[3.3.1.1^3,7]dec-2-yl)-3-phenylpropan-1-one], the IC50 is < 100 nM.

Take `O=C(CCn1nnc2ccccc21)N1C2CC3CC1CC(O)(C3)C2` [Example 16, 3-(1H-benzotriazol-1-yl)-1-(5-hydroxy-2-azatricyclo[3.3.1.1^3,7]dec-2-yl)propan-1-one]: the IC50 was > 250 nM. Then `Cc1cccc2c1c(C(C)CC(=O)N1C3CC4CC1CC(O)(C4)C3)cn2C1CC1` (stereo not drawn) [Compound 205, 3-(1-cyclopropyl-4-methyl-1H-indol-3-yl)-1-(5-hydroxy-2-azatricyclo[3.3.1.1^3,7]dec-2-yl)butan-1-one], with > 250 nM; and `CC(CC(=O)N1C2CC3CC1CC(C(=O)O)(C3)C2)c1c[nH]c2ccc(-c3ccccc3)cc12` (stereo not drawn) [Compound 142, 2-[3-(5-phenyl-1H-indol-3-yl)butanoyl]-2-azatricyclo[3.3.1.1^3,7]decane-5-carboxylic acid], with > 250 nM. Then `CC(CC(=O)N1C2CC3CC1CC(C#N)(C3)C2)c1c[nH]c2nccc(C3CC3)c12` (stereo not drawn) [Compound 136, 2-[3-(4-cyclopropyl-1H-pyrrolo[2,3-b]pyridin-3-yl)butanoyl]-2-azatricyclo[3.3.1.1^3,7]decane-5-carbonitrile], with < 100 nM; and `Cc1ccc2[nH]cc(C(C)CC(=O)N3C4CC5(C)CC3CC(O)(C4)C5)c2c1Cl` (stereo not drawn) [Compound 219, 3-(4-chloro-5-methyl-1H-indol-3-yl)-1-(5-hydroxy-7-methyl-2-azaadamantan-2-yl)butan-1-one], with < 100 nM; and `COC12CC3CC(C1)N(C(=O)CC(C)c1c[nH]c4cccc(F)c14)C(C3)C2` (stereo not drawn) [Example 29, 3-(4-fluoro-1H-indol-3-yl)-1-(5-methoxy-2-azatricyclo[3.3.1.1^3,7]dec-2-yl)butan-1-one], with 100 to 150 nM.

With `CC(C)Oc1cccc2[nH]cc(C(C)CC(=O)N3C4CC5CC(C4)CC3C5)c12` (stereo not drawn) [Compound 181, 1-(2-azatricyclo[3.3.1.1^3,7]dec-2-yl)-3-[4-(propan-2-yloxy)-1H-indol-3-yl]butan-1-one], the IC50 is > 250 nM. Then `CC(CC(=O)N1C2CC3CC1CC(O)(C3)C2)c1c[nH]c2cccc(-c3cccs3)c12` (stereo not drawn) [Compound 153, 1-(5-hydroxy-2-azatricyclo[3.3.1.1^3,7]dec-2-yl)-3-[4-(thiophen-2-yl)-1H-indol-3-yl]butan-1-one], with < 100 nM. With `COc1cc2c(C(C)CC(=O)N3C4CC5CC3CC(O)(C5)C4)c[nH]c2cc1Cl` (stereo not drawn) [Compound 117, 3-(6-chloro-5-methoxy-1H-indol-3-yl)-1-(5-hydroxy-2-azatricyclo[3.3.1.1^3,7]dec-2-yl)butan-1-one] the figure was > 250 nM.

With `CC(CC(=O)N1C2CC3CC1CC(O)(C3)C2)c1cn(C)c2cccc(Cl)c12` (stereo not drawn) [Compound 207, 3-(4-chloro-1-methyl-1H-indol-3-yl)-1-(5-hydroxy-2-azatricyclo[3.3.1.1^3,7]dec-2-yl)butan-1-one], the IC50 was in the range of 100 to 150 nM.

For `CC(CC(=O)N1C2CC3CC(C2)CC1C3)c1nc2c(Cl)cccc2s1` (stereo not drawn) [Compound 119, 1-(2-azatricyclo[3.3.1.1^3,7]dec-2-yl)-3-(4-chloro-1,3-benzothiazol-2-yl)butan-1-one], the 50% inhibitory concentration (IC50) was < 100 nM. With `COc1ccc2[nH]cc(C(C)CC(=O)N3C4CC5CC3CC(C)(C5)C4)c2c1` (stereo not drawn) [Compound 227, 3-(5-methoxy-1H-indol-3-yl)-1-(5-methyl-2-azaadamantan-2-yl)butan-1-one] the figure was < 100 nM.

Usually IC50 stands for the midpoint of a concentration-inhibition curve.
